Consider four molecules from DBAASP.

Test systems include Staphylococcus aureus; Candida albicans; Escherichia coli JM109.
Common to all, as to test: ≥ marks a high value that may be exact or a test limit, other limits are often not marked, values filed in µg/mL are converted to µM
The subject of assay [1] is Streptococcus mutans UA159.
For assay [2], the system named is Streptococcus gordonii Challis DL1.
Assay [3] relates to Streptococcus sanguinis NY101.
Assay [4] deals with Pseudomonas aeruginosa PAK.
The subject of assay [5] is Streptococcus mitis ATCC 903.
Assay [6] deals with Bacillus subtilis ATCC 6633.
Assay [7] deals with Escherichia coli NIHJ JC-2.
Assay [8] relates to Staphylococcus aureus FDA 209P JC-1.
For assay [9], the system named is Staphylococcus aureus ATCC 6538P.
Assay [10] deals with Staphylococcus aureus PCM 1944.
The subject of assay [11] is Escherichia coli PCM 2057.

In brackets after ≈: the same amount, converted by molar mass.

Regarding `CC[C@H](C)[C@H](N)C(=O)N[C@@H](CCCCN)C(=O)N[C@@H](CCC(N)=O)C(=O)N[C@@H](CC(C)C)C(=O)N[C@@H](CC(C)C)C(=O)N[C@@H](Cc1cnc[nH]1)C(=O)N[C@@H](Cc1ccccc1)C(=O)N[C@@H](Cc1ccccc1)C(=O)N[C@@H](CCC(N)=O)C(=O)N[C@@H](CCCN=C(N)N)C(=O)N[C@@H](Cc1ccccc1)C(=O)NCC(=O)NCC(=O)NCC(=O)N[C@@H](Cc1ccccc1)C(=O)N[C@H](C(=O)N[C@@H](CCCCN)C(=O)N[C@@H](Cc1cnc[nH]1)C(=O)N[C@@H](Cc1ccccc1)C(=O)N[C@H](C(=O)N[C@@H](Cc1cnc[nH]1)C(=O)N[C@@H](CCCN=C(N)N)C(=O)N[C@@H](Cc1ccccc1)C(N)=O)[C@@H](C)CC)[C@@H](C)CC` [IKQLLHFFQRFGGGFIKHFIHRF], the minimal inhibitory concentration (MIC) (usually the lowest concentration found to suppress growth) in [1] was 2.78 µM (≈ 8 µg/mL); against Staphylococcus aureus, 21.7 µM (≈ 62.5 µg/mL); in [2], 11.1 µM (≈ 32 µg/mL); in assay [3], 11.1 µM (≈ 32 µg/mL); in [4], no less than 43.5 µM; in assay [5], 5.57 µM (≈ 16 µg/mL).
In the case of `CC[C@H](C)[C@H](NC(=O)CNC(=O)[C@H](C)NC(=O)[C@H](CC(C)C)NC(=O)[C@@H](NC(=O)[C@@H]1CCCN1C(=O)[C@H](CC(C)C)NC(=O)[C@@H](N)Cc1ccccc1)C(C)C)C(=O)N[C@@H](C)C(=O)N[C@@H](C)C(=O)N[C@@H](CCCCN)C(=O)N[C@H](C(=O)N[C@H](C(=O)N1CCC[C@H]1C(=O)N[C@@H](C)C(=O)N[C@@H](CC(C)C)C(=O)N[C@@H](Cc1ccccc1)C(=O)N[C@H]1CSSC[C@@H](C(=O)O)NC(=O)[C@H](CCCCN)NC(=O)[C@H](CCCCN)NC(=O)[C@H]([C@@H](C)O)NC(=O)[C@H]([C@@H](C)CC)NC(=O)[C@H](CCCCN)NC1=O)C(C)C)C(C)C` [FLPVLAGIAAKVVPALFCKITKKC], the MIC in [6] was 0.79 µM (≈ 2 µg/mL); in assay [7] it was 13.4 µM (≈ 34 µg/mL); in assay [8] it was 3.16 µM (≈ 7.99 µg/mL); with Candida albicans, greater than 51.4 µM.
Consider `CC[C@H](C)[C@H](NC(=O)[C@H](C)NC(=O)[C@H](CC(C)C)NC(=O)[C@H](CS)NC(=O)[C@H](Cc1cnc[nH]1)NC(=O)[C@H](C)N)C(=O)NCC(=O)N[C@@H](CCCN=C(N)N)C(=O)N[C@@H](CCCN=C(N)N)C(N)=O` [AHCLAIGRR], for which the MIC in [9] was 6.02 µM; with Escherichia coli JM109, 16.1 µM; with Staphylococcus aureus it was greater than 64.2 µM.
Regarding `CC[C@H](C)[C@H](NC(=O)[C@H](CC(N)=O)NC(=O)[C@@H](NC(=O)[C@H](C)N)C(C)C)C(=O)N1CCC[C@H]1C(=O)N[C@@H](Cc1ccccc1)C(=O)N[C@@H](CCCCN)C(=O)N[C@H](C(=O)N[C@@H](Cc1cnc[nH]1)C(=O)N[C@@H](Cc1ccccc1)C(=O)N[C@@H](CCCN=C(N)N)C(=O)O)C(C)C` [AVNIPFKVHFR], the minimum inhibitory concentration (MIC) in assay [10] and in assay [11] was no less than 753 µM in each case.
